In this experiment the test system is rabbit bullous keratopathy model. Kind of experiment: Adhesion of injected cells to substrate after 24 hours in rabbit bullous keratopathy model, laminin with ROCK inhibitor. It is filed as in vivo. The following applies: average; 24 hours after injection of cultured RCEC into anterior chamber; Y-27632 100 μM in both groups, with or without laminin 511-E8 fragments 2.1 nM. The method, then:
A rabbit corneal endothelium was mechanically detached to make a bullous keratopathy model. Adhesion of injected cells to a substrate after 24 hours was compared between individuals injected with cultured rabbit corneal endothelial cells together with a ROCK inhibitor Y-27632 (+) (100 μM) into the anterior chamber and individuals injected with cells together with laminin 511-E8 fragments (2.1 nM) and Y-27632 (+) (100 μM). The rabbit was euthanized after 24 hours. Corneal tissue was extracted and subjected to phalloidin staining to evaluate the morphology and cell count of adhered cells.

Structures can show the parent of a compound that is named as a salt.

For `C[C@@H](N)[C@H]1CC[C@H](C(=O)Nc2ccncc2)CC1` [Y-27632, (R)-(+)-trans-(4-pyridyl)-4-(1-aminoethyl)-cyclohexanecarboxamide dihydrochloride monohydrate, reference compound], the adhering cell density is on record as 717.3 cells/mm^2.
